“And” between values parts separate entries of the source, which are not always exact repeats. Identical values can stand only once. “Also recorded” adds a separate entry of the source.
Tests used:
[1] = SNALP particle diameter and polydispersity, Malvern Zetasizer; format: physicochemical; details: SNALP DSPC:Chol:PEG-C-DMA:Cationic Lipid 20:48:2:30 molar percent; mean of 3 experiments, error is standard deviation
Procedure: (§1) SNALP Preparation: SNALP with a lipid composition of DSPC:Chol:PEG-C-DMA:Cationic Lipid (20:48:2:30 molar percent) were prepared using the spontaneous vesicle formation by ethanol dilution method [Jeffs et al., Pharm. Res. In Press (2005)]. The sample's were diafiltered against 100 mL of PBS (20 wash volumes) using a cross flow ultrafiltration cartridge (Amersham Biosciences, Piscataway, N.J.) and sterile filtered through Acrodisc 0.2 μm Posidyne filters (Pall Corp., Ann Arbor, Mich.). The siRNA concentration of final samples was determined using the RiboGreen assay and a siRNA standard curve. Particle size and polydispersity was determined using a Malvern Instruments Zetasizer 3000HSA (Malvern, UK). Nucleic acid encapsulation was determined using a RiboGreen assay, comparing fluorescence in the presence and absence of Triton X-100. RiboGreen fluorescence was measured using a Varian Eclipse Spectrofluorometer (Varian Inc) with λex=500 nm, λem=525 nm.
(§2) This example sets forth the physical properties of the SNALP formulations described herein. SNALP containing the various cationic lipids were prepared as described and encapsulated RNA and particle size assessed (Table 1 below). […] Polydispersity of all formulations was low, indicating a narrow distribution of particle size. RNA encapsulation in the final particles was 84-85% of the total.
(§3) Percentage Encapsulation was determined using the RiboGreen fluorescence assay to measure the amount of encapsulated nucleic acid relative to the total nucleic acid present. Particle diameter and polydispersity was measured using a Malvern Zetasizer. Values are the mean of 3 separate experiments, the error is standard deviation.

Neuro2A-G cells = assay: Uptake of SNALP containing Cy3-labeled siRNA, fluorescence microscopy; format: cell-based; details: 0.5 μg/mL siRNA, 4 hours
Procedure: Uptake of SNALP Containing Cy3-labeled siRNA: SNALP were formulated as previously described, but using siRNA labelled with the fluorophore Cy3 (Cy3-siRNA was a gift of Sirna Therapeutics Inc, Boulder, Colo.). The encapsulation, siRNA concentration, and particle size were determined as described.
For the uptake study, 8×10^4 Neuro2A-G cells were grown overnight on 4-well chamber slides (BD Falcon, Mississauga, ON) in MEM containing 0.25 mg/mL G418. DSDMA, DODMA, DLinDMA, and DLenDMA SNALP containing Cy3-siRNA, as well as naked Cy3-siRNA and unlabeled DSDMA SNALP were placed on the cells at 0.5 μg/mL siRNA. After a 4 hour incubation with the transfection media, the cells were washed with PBS, then with MEM containing G418 and finally with PBS once more. […] The cells were viewed using an Olympus BX60 Microscope modified for fluorescence capabilities. Cy3 fluorescence within the cells was visualized using a rhodamine cube set (Microgen Optics, Redding, Calif.) and the DAPI fluorescence was visualized using a DAPI cube set (Carsen Group, Markham, ON). […] Pictures of the cells were taken at exposure times of ¼ sec when examining Cy3 fluorescence and 1/80 sec when examining DAPI fluorescence.
The uptake process was examined further with the use of fluorescently labelled SNALP. […] The Cy3 fluorescence (red) is most intense in cells treated with DSDMA containing SNALP. […]

[2] = Nucleic acid encapsulation in SNALP, RiboGreen fluorescence assay; format: physicochemical; details: SNALP DSPC:Chol:PEG-C-DMA:Cationic Lipid 20:48:2:30 molar percent, siRNA; mean of 3 experiments, error is standard deviation
Procedure: as §1, §2, §3

Neuro2A cells = assay: Cellular uptake of 3H-CHE-labeled SNALP; format: cell-based; details: 24 hours
Procedure: Cellular Uptake: SNALP were prepared incorporating the non-exchangeable tritium-labeled lipid cholesteryl hexadecyl ether (3H—CHE) (11.1 μCi/μmol total lipid) [Bally et al., in Liposome Technology, Vol. III, pp. 27-41, CRC Press (1993)]. Neuro2A cells (ATCC, VA, USA) were plated in 12 well plates at 1.6×10^5 cells per well in minimal essential media. The following day, media was removed and replaced with media containing radiolabelled SNALP at 0.5 μg/mL nucleic acid. After 24 hours, the media and unincorporated SNALP were removed, adherent cells gently washed 4 times with PBS, and then lysed with 600 μL Lysis Buffer (250 mM phosphate with 0.1% Triton X-100). The resulting cell lysate (500 μL) was added to glass scintillation vials containing 5 mL Picofluor 40 (Perkin Elmer) and ^3H—CHE was determined using a Beckman LS6500 scintillation counter (Beckman Instruments). The protein content of cell lysates was determined using the Micro BCA assay (Pierce). Uptake was expressed as a percentage of the total amount of activity applied to the cells per mg of cellular protein.
The extent to which formulations are taken up by cells was measured with SNALP incorporating ^3H-labeled CHE [Bally et al., in Liposome Technology, Vol. III, pp. 27-41, CRC Press (1993)]. […] Uptake is expressed as a percentage of the total activity applied to the cells. […]

| SMILES | Diameter (nm) [1] | Polydispersity [1] | cellular uptake of Cy3-labeled siRNA (Cy3 fluorescence) (Neuro2A-G cells) | % Encapsulation [2] | cellular uptake of 3H-CHE-labeled SNALP (Neuro2A cells) |
| --- | --- | --- | --- | --- | --- |
| CC/C=C\C/C=C\C/C=C\CCCCCCCCOCC(CN(C)C)OCCCCCCCC/C=C\C/C=C\C/C=C\CC (stereo not shown) [DLenDMA, 1,2-Dilinolenyloxy-N,N-dimethylaminopropane] | 132 ± 7 nm | 0.13 ± 0.03 | extremely faint | 85 ± 1% | particularly limited; also recorded: limited when compared to that of the DLinDMA formulation |
| CCCCCCCCCCCCCCCCCC[N+](C)(C)CCCCCCCCCCCCCCCCCC [DSDMA, Distearyldimethylammonium] | 180 nm and 182 ± 11 nm | 0.15 ± 0.03 | most intense | 67% and 67 ± 3% | greatest degree of uptake; also recorded: taken up most readily |

— US7745651B2, “Cationic lipids and methods of use” (Protiva Biotherapeutics, Inc., priority 2004, dated 2010)
